Reference: patent publication US20260001910A1, “PEPTIDES AND USES THEREOF” (PreveCeutical Medical Inc., priority 2021, published 2026)

Legend:
[1] = Source text: (§1) The MTT (3-[4.5-dimethylthiazol-2-yl]-2,5=diphenyl tetrazolium bromide) assay is based on a process undertaken by living cells, involving the conversion of MTT into formazan crystals. This assay is used routinely to measure the in vitro cytotoxic effects of drugs on cell lines or primary patient cells (Van Meerloo et al., 2011).
(§2) The glioblastoma multiforme (GBM) cell lines used were U87 and U251 cells and patient derived cells grown as oncospheres (081024 cells). Human adherent GBM cell lines U87 and U251 were cultured in RPMI medium (Life Technologies Melbourne Australia) supplemented with 5% v/v FBS, 100 U/mL penicillin and 100 μg/mL streptomycin. 081024 cells were cultured in NeuroCult™ NS-A Proliferation medium with 0.2% (v/v) hepain, 20 ng/mL EGF and 10 ng/ml FGF.
(§3) 8×10^3 U87 and 7×10^3 U251 cells per well were seeded in 96 well plates in 200 μL serum-containing RPMI medium and incubated at 37° C. with 5% CO2 for 24 hours. After one wash with serum-free medium, 100 μL serum-free medium with different concentration of peptide SEQ ID NO:1 was added to each well. After 48 hours incubation, 10 μL of 0.5 mg/mL MTT was added and incubated for 2 hours at 37° C. Formazan crystals were dissolved by 200 μL/well dimethyl sulfoxide (DMSO) and shaking for 15 minutes. The UV absorbance was read with an iMark™ microplate absorbance reader at 595 nm (Bio-Rad Laboratories). Background absorbance was subtracted and results expressed as the % viability of control (untreated cells).

[2] = tested on: U87, U251 and 081024 cells; settings: MTT, all three GBM cell lines
Source text: as §1, §2, §3

[3] = tested on: CDH-2 (N-cadherin) mRNA; test: Real time RT-PCR mRNA expression (EMT marker); assay type: cell-based, human
Source text: (§4) The real-time reverse transcription polymerase chain reaction (RT-PCR) uses fluorescent reporter molecules to monitor the production of amplification products during each cycle of the PCR reaction. This combines the nucleic acid amplification and detection steps into one homogeneous assay and use of appropriate chemistries and data analysis eliminates the need for Southern blotting or DNA sequencing for amplicon identification. Its simplicity, specificity and sensitivity, together with its potential for high throughput and the ongoing introduction of new chemistries, more reliable instrumentation and improved protocols, has made real-time RT-PCR the benchmark technology for the detection and/or comparison of RNA levels.′
(§5) In order to detect and quantify the expression of specific genes at mRNA level, real-time reverse transcriptase polymerase chain reaction (Real time RT-PCR) was performed. Total RNA of samples was isolated and purified using the PureLink® RNA Mini Kit (Life technologies). The concentration of total RNA was detected by NanoDrop 2000 Spectrophotometer (Thermo Scientific). The total RNA (2000 ng) was reverse transcribed using the High-Capacity cDNA Reverse Transcription Kit (Applied Biosystems™).
(§6) The primers of target genes were TaqMan™ Gene Expression Assay for human PLAU (Hs01547054_m1), MMP-2 (Hs01548727_ml), MMP-9 (Hs00957562_m1), Snail-1 (Hs00195591_m1), Snail-2 (Hs00161904_m1), N-cadherin (Hs00983056_m1) and Twist (Hs01675818_s1). Relative quantification was done by reference to 18S ribosomal RNA (18S rRNA) and analysed using the comparative critical threshold (Ct) method
(§7) The mRNA expression of MMPs was measured using qRT-PCR. This was tested three independent times; the results are shown in Tables 8, 9 and 10 for U251, U87 cells and 081024 cells respectively. Results are reported as percent of the control cells (no treatment). SEQ ID NO.
(§8) Epithelial-mesenchymal transition (EMT) is the process by which epithelial cells acquire a migratory (metastatic) phenotype and so EMT is associated with cancer metastasis, cancer cell stemness, chemoresistance and immune resistance. Therefore, the determination of the mRNA expression of EMT markers is a valuable tool to evaluate invasion potential of cancer cells.
(§9) The ‘Snail’ superfamily is involved in cell differentiation and survival, two processes central in cancer research. Snail-1 has a pivotal role in the regulation of epithelial-mesenchymal transition (EMT) and Snail-1 expression is associated with poor prognosis in metastatic cancer, and tumours with elevated Snail-1 expression are harder to treat. The significance of Snail-1 as a prognostic indicator, its involvement in the regulation of EMT and metastasis, and its roles in both drug and immune resistance point out that Snail-1 is an attractive target for tumour growth inhibition and a target for sensitization to cytotoxic drugs (Kaufhold et al., 2014). Twist is transcriptionally active during cell differentiation and lineage determination. During the establishment of cancer metastases by EMT, Twist acts independently of Snail to suppress E-cadherin and to upregulate N-cadherin (CDH-2) and fibronectin. Snail-2 (Slug) is another member of the SNAIL family of transcriptional activators and serves an important role in suppressing the epithelial phenotype in numerous cancer cells (Iwadate, 2016).

[4] = tested on: Snail-2 mRNA; test: Real time RT-PCR mRNA expression (EMT marker); assay type: cell-based, human
Source text: as §4, §5, §6, §7, §8, §9

[5] = tested on: Snail-1 mRNA; test: Real time RT-PCR mRNA expression (EMT marker); assay type: cell-based, human
Source text: as §4, §5, §6, §7, §8, §9

[6] = tested on: Twist mRNA; test: Real time RT-PCR mRNA expression (EMT marker); assay type: cell-based, human
Source text: as §4, §5, §6, §7, §8, §9

[7] = 081024 cells, baseline expression level = 1
[8] = U87 cells, baseline expression level = 1
[9] = U251 cells, relative to untreated control, 18S rRNA reference

In the case of `CC(C)C[C@@H](NC(=O)[C@@H](Cc1ccccc1)NC(=O)CNC(=O)CNC(=O)[C@H](N)Cc1ccc(O)cc1)C(=O)N[C@H](CCCNC(=N)N)C(=O)N[C@H](CCCNC(=N)N)C(N)=O` [SEQ ID NO. 1, tyr-Gly-Gly-phe-leu-arg-arg-NH2], the viability at 5 µM [1] is reported as 95.8%, the viability at 50 µM [1] is reported as 99.1% and the viability at 100 µM [1] is reported as 93.4%. The “highest concentration which did not significantly affect cell viability” value [2] was 0.5 mM, the “CDH-2 mRNA expression” value [3, 7] was 0.72 and the “CDH-2 mRNA expression” value [3, 8] was 0.83. The “CDH-2 mRNA expression” value [3, 9] was 0.88, the “Snail-2 mRNA expression” value [4, 7] was 0.78 and the “Snail-2 mRNA expression” value [4, 8] was 1.05. For the same molecule, the “Snail-2 mRNA expression” value [4, 9] was 1.06, the “Snail-1 mRNA expression” value [5, 7] was “halved the expression of Snail-1 mRNA with statistical significance” and the “Snail-1 mRNA expression” value ([5]; 081024 cells, baseline expression level = 1, listed as SEQ ID NO.1) was 0.53. The “Snail-1 mRNA expression” value [5, 8] was 0.65, the “Snail-1 mRNA expression” value [5, 9] was 1.11 and the “Twist mRNA expression” value [6, 7] was 0.73. The “Twist mRNA expression” value [6, 8] was 0.70 and the “Twist mRNA expression” value [6, 9] was 0.87.
